Results taken from PubChem BioAssay (NCI).
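GI50 = concentration required for 50% inhibition of growth. Definition used: TGI = concentration required for complete inhibition of growth.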

Legend:
Assay in all cases: DTP human tumour cell line panel, 384-well format
RPMI-8226 leukemia = test system: RPMI-8226 leukemia
HOP-92 NSCLC = test system: HOP-92 NSCLC
A498 renal = test system: A498 renal
OVCAR-8 ovarian = test system: OVCAR-8 ovarian
NCI-H226 lung = test system: NCI-H226 lung
T-47D breast = test system: T-47D breast
MDA-MB-231 breast = test system: MDA-MB-231 breast
MCF7 breast = test system: MCF7 breast
NCI-H322M lung = test system: NCI-H322M lung
SW-620 colon = test system: SW-620 colon
OVCAR-5 ovarian = test system: OVCAR-5 ovarian
NCI-H522 lung = test system: NCI-H522 lung
NCI-H460 NSCLC = test system: NCI-H460 NSCLC
CCRF-CEM leukemia = test system: CCRF-CEM leukemia
MDA-MB-468 breast = test system: MDA-MB-468 breast
DU-145 prostate = test system: DU-145 prostate
HOP-62 NSCLC = test system: HOP-62 NSCLC
ACHN renal = test system: ACHN renal
SK-OV-3 ovarian = test system: SK-OV-3 ovarian
SK-MEL-28 melanoma = test system: SK-MEL-28 melanoma
SR leukemia = test system: SR leukemia
RXF 393 renal = test system: RXF 393 renal
SK-MEL-2 melanoma = test system: SK-MEL-2 melanoma
BT-549 breast = test system: BT-549 breast
SF-268 CNS = test system: SF-268 CNS
NCI-H23 lung = test system: NCI-H23 lung
HCC-2998 colon = test system: HCC-2998 colon
HS 578T breast = test system: HS 578T breast
MOLT-4 leukemia = test system: MOLT-4 leukemia
MDA-MB-435 melanoma = test system: MDA-MB-435 melanoma
M14 melanoma = test system: M14 melanoma
786-0 renal = test system: 786-0 renal
EKVX NSCLC = test system: EKVX NSCLC
COLO 205 colon = test system: COLO 205 colon
SF-539 CNS = test system: SF-539 CNS
OVCAR-4 ovarian = test system: OVCAR-4 ovarian
NCI/ADR-RES ovarian = test system: NCI/ADR-RES ovarian
TK-10 renal = test system: TK-10 renal
LOX IMVI melanoma = test system: LOX IMVI melanoma
IGROV1 ovarian = test system: IGROV1 ovarian
OVCAR-3 ovarian = test system: OVCAR-3 ovarian
SF-295 CNS = test system: SF-295 CNS
UACC-62 melanoma = test system: UACC-62 melanoma
SK-MEL-5 melanoma = test system: SK-MEL-5 melanoma
HT29 colon = test system: HT29 colon
SNB-19 CNS = test system: SNB-19 CNS
HCT-116 colon = test system: HCT-116 colon
MALME-3M melanoma = test system: MALME-3M melanoma
HL-60(TB) leukemia = test system: HL-60(TB) leukemia
K-562 leukemia = test system: K-562 leukemia
SN12C renal = test system: SN12C renal
U251 glioblastoma = test system: U251 glioblastoma
SNB-75 CNS = test system: SNB-75 CNS
HCT-15 colon = test system: HCT-15 colon
A549 NSCLC = test system: A549 NSCLC
UACC-257 melanoma = test system: UACC-257 melanoma
CAKI-1 renal = test system: CAKI-1 renal
KM12 colon = test system: KM12 colon
UO-31 renal = test system: UO-31 renal
PC-3 prostate = test system: PC-3 prostate

What does the source list for O=C(c1ccc(F)c(F)c1Nc1ccc(I)cc1F)N1CC(O)([C@@H]2CCCCN2)C1?
GI50 (RPMI-8226 leukemia): 1.05 µM; TGI (RPMI-8226 leukemia): 5.22 µM; GI50 (HOP-92 NSCLC): 0.153 µM; TGI (HOP-92 NSCLC): 0.599 µM; GI50 (A498 renal): 0.472 µM; TGI (A498 renal): 2.95 µM; GI50 (OVCAR-8 ovarian): 3.86 µM; TGI (OVCAR-8 ovarian): 10.5 µM; GI50 (NCI-H226 lung): 0.23 µM; TGI (NCI-H226 lung): 6.32 µM; GI50 (T-47D breast): 4.79 µM; TGI (T-47D breast): 12.5 µM; GI50 (MDA-MB-231 breast): 0.172 µM; TGI (MDA-MB-231 breast): 1.36 µM; GI50 (MCF7 breast): 3.55 µM; TGI (MCF7 breast): 7.29 µM; GI50 (NCI-H322M lung): 0.217 µM; TGI (NCI-H322M lung): 6.61 µM; GI50 (SW-620 colon): 0.0417 µM; TGI (SW-620 colon): 5.83 µM; GI50 (OVCAR-5 ovarian): 0.126 µM; TGI (OVCAR-5 ovarian): 7.96 µM; GI50 (NCI-H522 lung): 2.6 µM; TGI (NCI-H522 lung): 17.3 µM; GI50 (NCI-H460 NSCLC): 1.27 µM; TGI (NCI-H460 NSCLC): 5.74 µM; GI50 (CCRF-CEM leukemia): 3.35 µM; TGI (CCRF-CEM leukemia): 7.67 µM; GI50 (MDA-MB-468 breast): 3.89 µM; TGI (MDA-MB-468 breast): 9.32 µM; GI50 (DU-145 prostate): 1.25 µM; TGI (DU-145 prostate): 15.5 µM; GI50 (HOP-62 NSCLC): 0.403 µM; TGI (HOP-62 NSCLC): 13.5 µM; GI50 (ACHN renal): 1.49 µM; TGI (ACHN renal): 12.2 µM; GI50 (SK-OV-3 ovarian): 5.11 µM; TGI (SK-OV-3 ovarian): 18.6 µM; GI50 (SK-MEL-28 melanoma): < 0.01 µM; TGI (SK-MEL-28 melanoma): 0.0163 µM; GI50 (SR leukemia): 1.07 µM; TGI (SR leukemia): 2.33 µM; GI50 (RXF 393 renal): 0.725 µM; TGI (RXF 393 renal): 2.58 µM; GI50 (SK-MEL-2 melanoma): 0.0182 µM; TGI (SK-MEL-2 melanoma): 0.0529 µM; GI50 (BT-549 breast): 1.4 µM; TGI (BT-549 breast): 9.16 µM; GI50 (SF-268 CNS): 8.35 µM; TGI (SF-268 CNS): 20.5 µM; GI50 (NCI-H23 lung): 0.0505 µM; TGI (NCI-H23 lung): 0.708 µM; GI50 (HCC-2998 colon): 0.0102 µM; TGI (HCC-2998 colon): 0.077 µM; GI50 (HS 578T breast): 4.74 µM; TGI (HS 578T breast): 15.9 µM; GI50 (MOLT-4 leukemia): 2.02 µM; TGI (MOLT-4 leukemia): 4.83 µM; GI50 (MDA-MB-435 melanoma): < 0.01 µM; TGI (MDA-MB-435 melanoma): 15.8 µM; GI50 (M14 melanoma): < 0.01 µM; TGI (M14 melanoma): 0.0146 µM; GI50 ([…]-0 renal): 1.52 µM; TGI (786-0 renal): 5 µM; GI50 (EKVX NSCLC): 1.34 µM; TGI (EKVX NSCLC): 14.2 µM; GI50 (COLO 205 colon): < 0.01 µM; TGI (COLO 205 colon): 0.0274 µM; GI50 (SF-539 CNS): 0.969 µM; TGI (SF-539 CNS): 7.01 µM; GI50 (OVCAR-4 ovarian): 2.7 µM; TGI (OVCAR-4 ovarian): 12.4 µM; GI50 (NCI/ADR-RES ovarian): 3.42 µM; TGI (NCI/ADR-RES ovarian): 16.1 µM; GI50 (TK-10 renal): 0.956 µM; TGI (TK-10 renal): 10.9 µM; TGI (LOX IMVI melanoma): 0.527 µM; GI50 (IGROV1 ovarian): 0.12 µM; TGI (IGROV1 ovarian): 4.51 µM; GI50 (OVCAR-3 ovarian): 5.55 µM; TGI (OVCAR-3 ovarian): 17.2 µM; GI50 (SF-295 CNS): 6.2 µM; TGI (SF-295 CNS): 12.2 µM; GI50 (UACC-62 melanoma): < 0.01 µM; TGI (UACC-62 melanoma): 0.161 µM; GI50 (SK-MEL-5 melanoma): < 0.01 µM; TGI (SK-MEL-5 melanoma): 0.0703 µM; GI50 (HT29 colon): 0.0101 µM; TGI (HT29 colon): 4.24 µM; GI50 (SNB-19 CNS): 5.49 µM; TGI (SNB-19 CNS): 18.5 µM; GI50 (HCT-116 colon): 0.0703 µM; TGI (HCT-116 colon): 0.834 µM; GI50 (MALME-3M melanoma): < 0.01 µM; GI50 (HL-60(TB) leukemia): 0.0101 µM; TGI (HL-60(TB) leukemia): 0.375 µM; GI50 (K-562 leukemia): 0.284 µM; TGI (K-562 leukemia): 1.47 µM; GI50 (SN12C renal): 0.645 µM; TGI (SN12C renal): 16 µM; GI50 (U251 glioblastoma): 0.82 µM; TGI (U251 glioblastoma): 8.28 µM; GI50 (SNB-75 CNS): 1.39 µM; TGI (SNB-75 CNS): 6.7 µM; GI50 (HCT-15 colon): 1.25 µM; TGI (HCT-15 colon): 9.73 µM; GI50 (A549 NSCLC): 0.0975 µM; TGI (A549 NSCLC): 2.73 µM; GI50 (UACC-257 melanoma): < 0.01 µM; TGI (UACC-257 melanoma): 0.0268 µM; GI50 (CAKI-1 renal): 0.565 µM; TGI (CAKI-1 renal): 10.4 µM; GI50 (KM12 colon): 0.136 µM; TGI (KM12 colon): 6.91 µM; GI50 (UO-31 renal): 0.297 µM; TGI (UO-31 renal): 3.77 µM; GI50 (PC-3 prostate): 7.65 µM; TGI (PC-3 prostate): 19.8 µM
